In patent US20200038513A1, “MODULATORS OF FAK PROTEOLYSIS AND ASSOCIATED METHODS OF USE” (ARVINAS OPERATIONS, INC., priority 2018, published 2020):
Like-named read-outs stand apart in the source and are kept apart here.

Tests used:
PPB = format: in vitro ADME; conditions: plasma
[1] = Pharmacokinetics of intraperitoneal or intravenous injection in CD1 mice; format: in vivo; conditions: for Conc. (ng/mL) Mouse 1 / Conc. (ng/mL) Mouse 2 / Conc. (ng/mL) Mouse 3 / concentration at 0.25 h / concentration at 0.5 h / concentration at 1 h / concentration at 2 h / concentration at 4 h / concentration at 8 h / concentration at 0.033 h / concentration at 0.083 h: CD1 mice plasma; for concentration at 0.25 h / concentration at 0.5 h / concentration at 1 h / concentration at 2 h / concentration at 4 h / concentration at 8 h / AUC(0-t) / half-life / concentration at 0.033 h / concentration at 0.083 h: male, CD1, mouse, plasma
Summary of the method: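 Male CD1 mice, 6-8 weeks old, 3 per group, dosed IV (5 s injection; 10% HP-b-CD, 40 mM sodium acetate, 40 mM NaCl, pH 4.5) or IP (5% EtOH, 5% Solutol HS15 in D5W). Serial dorsal metatarsal vein blood, terminal heart puncture; plasma analysed by LC/MS/MS after acetonitrile precipitation, calibration 1-2000 ng/mL.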

[2] = ip, 10 mg/kg, IP 10 mg/kg, read-out: Conc. (ng/mL) Mouse 1
[3] = ip, 10 mg/kg, IP 10 mg/kg, read-out: Conc. (ng/mL) Mouse 2
[4] = ip, 10 mg/kg, IP 10 mg/kg, read-out: Conc. (ng/mL) Mouse 3
[5] = ip, 10 mg/kg, IP 10 mg/kg, read-out: Mean
[6] = iv, 1 mg/kg, IV 1.0 mg/kg, read-out: Conc. (ng/mL) Mouse 1
[7] = iv, 1 mg/kg, IV 1.0 mg/kg, read-out: Conc. (ng/mL) Mouse 2
[8] = iv, 1 mg/kg, IV 1.0 mg/kg, read-out: Conc. (ng/mL) Mouse 3
[9] = iv, 1 mg/kg, IV 1.0 mg/kg, read-out: Mean

fraction unbound (PPB): 0.0065 | Conc. (ng/mL) Mouse 1 ([1]; IP 10 mg/kg, 24 h): BLOQ | Conc. (ng/mL) Mouse 2 ([1]; IP 10 mg/kg, 24 h): BLOQ | Conc. (ng/mL) Mouse 3 ([1]; IP 10 mg/kg, 24 h): BLOQ | Conc. (ng/mL) Mouse 1 ([1]; IV 1.0 mg/kg, 4 h): BLOQ | Conc. (ng/mL) Mouse 3 ([1]; IV 1.0 mg/kg, 4 h): BLOQ | Conc. (ng/mL) Mouse 1 ([1]; IV 1.0 mg/kg, 8 h): BLOQ | Conc. (ng/mL) Mouse 2 ([1]; IV 1.0 mg/kg, 8 h): BLOQ | Conc. (ng/mL) Mouse 3 ([1]; IV 1.0 mg/kg, 8 h): BLOQ | Conc. (ng/mL) Mouse 1 ([1]; IV 1.0 mg/kg, 24 h): BLOQ | Conc. (ng/mL) Mouse 2 ([1]; IV 1.0 mg/kg, 24 h): BLOQ | Conc. (ng/mL) Mouse 3 ([1]; IV 1.0 mg/kg, 24 h): BLOQ | concentration at 0.25 h [1, 2]: 800 ng/mL | concentration at 0.25 h [1, 3]: 407 ng/mL | concentration at 0.25 h [1, 4]: 271 ng/mL | concentration at 0.25 h [1, 5]: 493 ng/mL | concentration at 0.5 h [1, 2]: 860 ng/mL | concentration at 0.5 h [1, 3]: 523 ng/mL | concentration at 0.5 h [1, 4]: 335 ng/mL | concentration at 0.5 h [1, 5]: 573 ng/mL | concentration at 1 h [1, 2]: 1040 ng/mL | concentration at 1 h [1, 3]: 1520 ng/mL | concentration at 1 h [1, 4]: 1780 ng/mL | concentration at 1 h [1, 5]: 1450 ng/mL | concentration at 2 h [1, 2]: 1630 ng/mL | concentration at 2 h [1, 3]: 1590 ng/mL | concentration at 2 h [1, 4]: 1180 ng/mL | concentration at 2 h [1, 5]: 1470 ng/mL | concentration at 4 h ([1]; ip, 10 mg/kg, IP 10 mg/kg, 4 h, read-out: Conc. (ng/mL) Mouse 1): 378 ng/mL | concentration at 4 h ([1]; ip, 10 mg/kg, IP 10 mg/kg, 4 h, read-out: Conc. (ng/mL) Mouse 2): 1090 ng/mL | concentration at 4 h ([1]; ip, 10 mg/kg, IP 10 mg/kg, 4 h, read-out: Conc. (ng/mL) Mouse 3): 1250 ng/mL | concentration at 4 h ([1]; ip, 10 mg/kg, IP 10 mg/kg, 4 h, read-out: Mean): 906 ng/mL | concentration at 8 h ([1]; ip, 10 mg/kg, IP 10 mg/kg, 8 h, read-out: Conc. (ng/mL) Mouse 1): 24.1 ng/mL | concentration at 8 h ([1]; ip, 10 mg/kg, IP 10 mg/kg, 8 h, read-out: Conc. (ng/mL) Mouse 2): 145 ng/mL | concentration at 8 h ([1]; ip, 10 mg/kg, IP 10 mg/kg, 8 h, read-out: Conc. (ng/mL) Mouse 3): 77.1 ng/mL | concentration at 8 h ([1]; ip, 10 mg/kg, IP 10 mg/kg, 8 h, read-out: Mean): 82 ng/mL | AUC(0-t) ([1]; ip, 10 mg/kg, read-out: AUClast (h * ng/mL) IP): 6500 ng·h/mL | half-life ([1]; ip, 10 mg/kg, read-out: T ½ (h) IP (converted)): 1.22 h | concentration at 0.033 h [1, 6]: 2100 ng/mL | concentration at 0.033 h [1, 7]: 1800 ng/mL | concentration at 0.033 h [1, 8]: 2310 ng/mL | concentration at 0.033 h [1, 9]: 2070 ng/mL | concentration at 0.083 h [1, 6]: 356 ng/mL | concentration at 0.083 h [1, 7]: 303 ng/mL | concentration at 0.083 h [1, 8]: 432 ng/mL | concentration at 0.083 h [1, 9]: 364 ng/mL | concentration at 0.25 h [1, 6]: 50.1 ng/mL | concentration at 0.25 h [1, 7]: 47.7 ng/mL | concentration at 0.25 h [1, 8]: 47 ng/mL | concentration at 0.25 h [1, 9]: 48.3 ng/mL | concentration at 0.5 h [1, 6]: 20.9 ng/mL | concentration at 0.5 h [1, 7]: 28.6 ng/mL | concentration at 0.5 h [1, 8]: 27.7 ng/mL | concentration at 0.5 h [1, 9]: 25.7 ng/mL | concentration at 1 h [1, 6]: 8.68 ng/mL | concentration at 1 h [1, 7]: 11.6 ng/mL | concentration at 1 h [1, 8]: 9.52 ng/mL | concentration at 1 h [1, 9]: 9.9 ng/mL | concentration at 2 h [1, 6]: 5.32 ng/mL | concentration at 2 h [1, 7]: 7.86 ng/mL | concentration at 2 h [1, 8]: 5.45 ng/mL | concentration at 2 h [1, 9]: 6.21 ng/mL | concentration at 4 h ([1]; iv, 1 mg/kg, IV 1.0 mg/kg, 4 h, read-out: Conc. (ng/mL) Mouse 2): 4.59 ng/mL | AUC(0-t) ([1]; iv, 1 mg/kg, read-out: AUClast (h * ng/mL) IV): 268 ng·h/mL | half-life ([1]; iv, 1 mg/kg, read-out: T ½ (h) IV (converted)): 1.26 h
Compound: Cc1ncsc1-c1ccc(CNC(=O)[C@@H]2C[C@@H](O)CN2C(=O)[C@@H](NC(=O)COCCCOc2ccc(Nc3ncc(C(F)(F)F)c(NCc4cccc(N(C)S(C)(=O)=O)c4)n3)cc2)C(C)(C)C)cc1 [Compound 101, (2S,4R)-1-((S)-3,3-dimethyl-2-(2-(3-(4-((4-((3-(N-methylmethylsulfonamido)benzyl)amino)-5-(trifluoromethyl)pyrimidin-2-yl)amino)phenoxy)propoxy)acetamido)butanoyl)-4-hydroxy-N-(4-(4-methylthiazol-5-yl)benzyl)pyrrolidine-2-carboxamide]
